{
  "source": "paper PMC6934184",
  "about": "“Selective DNA-PKcs inhibition extends the therapeutic index of localized radiotherapy and chemotherapy” (The Journal of Clinical Investigation, 2019)",
  "type_in_all_cases": "cell-based, Human",
  "key": {"MCF7 cells": {"tested_on": "MCF7 cells", "experiment": "clonogenic survival with IR", "conditions": "1 μM", "procedure": "Cell line γH2AX and 53BP1 foci immunofluorescence and quantitation\nCells grown on coverslips or in 96-well plates were treated with 1 or 5 µM NU5455 or DMSO 1 hour prior to irradiation (0, 2.5 or 10 Gy) using an RS 320 X-ray Research System (Gulmay Medical). At set timepoints (15 or 30 minutes, or 1, 4, 5, 6, or 24 hours post-irradiation), cells were washed and fixed in methanol or 3% paraformaldehyde (PFA). […] In A549 and Calu-6, cells were Hoechst stained (5 µg/ml), and the average numbers of γH2AX and 53BP1 foci per cell were quantified from 400 nuclei per sample using an In Cell analyzer 1000 (GE Healthcare). For MCF7 cells, coverslips were mounted using Vectashield mounting medium with DAPI (Vector Labs) and imaged using a Leica TCS SPE confocal fluorescence microscope. Total fluorescence intensity was determined using ImagePro Plus 5.0 software (Media Cybernetics). […]\nCells were washed in phosphate-buffered saline (PBS), trypsinized and counted. […] Colonies were fixed using Carnoys fixture (75% v/v methanol, 25% v/v acetic acid, Fisher), stained with crystal violet (0.4% w/v in water), and counted using a ColCount automated colony counter (Oxford Optronics). Cell survival was calculated as a percentage of the untreated control. […]"}, "[1]": {"tested_on": "HCT116 p53 null (-/-) cells", "experiment": "caspase activity after irradiation", "conditions": "1 µM, 1 hour prior to 2 Gy; 72 hours", "procedure": "(§1) Supplemental Figure 19. […] Fold […]\n(§2) caspase activity in HCT116 parental and p53 null (-/-) cells 72 hours following pre-treatment with NU5455 (1 µM) or DMSO for 1 hour prior to irradiation (0 or 2 Gy). Fold caspase activity was normalized to cell density determined by SRB staining. Data represent the mean ± SEM from three independent experiments. NS = not significant, **** P < 0.0001 (2-way ANOVA)."}, "HCT116 parental cells": {"tested_on": "HCT116 parental cells", "experiment": "caspase activity after irradiation", "conditions": "1 µM, 1 hour prior to 2 Gy; 72 hours", "procedure": "as §1, §2"}},
  "data": [
    {"molecule": "CN(C(=O)CN1CCOCC1)c1ccc2sc3c(-c4cccc5c(=O)cc(N6CC7CCC(C6)O7)oc45)cccc3c2c1", "note": "[NU5455]", "values": [
      {"measurement": "radio-enhancement (LD80)", "setting": "MCF7 cells; 24-hour treatment after IR", "result": 2.4, "unit": "fold"},
      {"measurement": "radio-enhancement (LD80)", "setting": "MCF7 cells; 1 hour of treatment after IR", "result": 1.2, "unit": "fold"},
      {"measurement": "radiation-induced apoptosis (fold caspase activity)", "setting": "[1]", "result": "increases radiation-induced apoptosis"},
      {"measurement": "radiation-induced apoptosis (fold caspase activity)", "setting": "HCT116 parental cells", "result": "increases radiation-induced apoptosis"}
    ]}
  ]
}
